Laboratory results: patent publication US11957671B2, “Benzodioxane modulators of leukotriene A4 hydrolase (LTA4H) for prevention and treatment of aging-associated diseases” (Alkahest, Inc., priority 2021, dated 2024)

Tests used:
[1] = test system: aged wild type (WT; C57BL/6) mice; test: Histology of astrocytes (GFAP, AQP4) in CA1 hippocampus; assay type: in vivo, mouse
Experimental: Brains were collected following saline perfusion and separated by mid-sagittal slice with one-half drop fixed in freshly prepared 4% PFA. PFA was changed to 30% sucrose 24-48 hours later. A second change to 30% sucrose occurred 24 hours later. Brain tissue was sectioned or lysed and analyzed for GFAP, AQP4, or IBA1 by standard histological methods. Images were acquired using a confocal microscope or Axioscan slide scanner.
(§1) Three independent cohorts of aged wild type (WT; C57BL/6) mice between twenty to twenty-two months of age (20-22 mo) were homogenized into two (2) groups by body weight, total distance travelled in the open field test, and average velocity in the open field test. Group 1 was administered vehicle control PO daily. Group 2 was administered 10 mg/kg of the LTA4H inhibitor Compound 1 PO daily. Both groups were dosed for either 10 days or 4 weeks daily. Behavioral assays were run during the last week of dosing and animals were sacrificed at the end of the study for histological and molecular assays.
FIGS. 22-30 report the results of the histology of astrocytes. GFAP is a pan astrocytic marker that was used to measure total number and size of astrocytes as a readout for astrocyte reactivity. AQP4 is a water channel expressed in astrocyte endfeet that line the blood-brain barrier. GFAP and AQP4 are increased with age and diseases with cognitive decline and BBB impairment (Kress B T et al., Ann Neurol, 76(6):845-61 (2014), Owasil R et al., Int J Mol Sci, 21(4) (2020), and Qi L et al., Life Sci, 88(1-2):50-56)). FIG. 22 reports GFAP percent area (Mann-Whitney test. (n=10, 10)), FIG. 23 reports the number of GFAP+ cells (Mann-Whitney test. (n=10, 10)), and FIG. 24 reports the average size of GFAP+ cells (Mann-Whitney test. (n=10, 10)) in the CA1 region of the hippocampus following 10 days of dosing. FIG. 25 reports the AQP4 intensity across a 60 micron (um) long line drawn across the large descending vessels of the CA1 hippocampus after 10 days of dosing with vehicle or Compound 1.

[2] = test system: LTA4H hydrolysis activity in human whole blood; test: Ex Vivo LTB4 Assay, human blood; assay type: cell-based; details: human whole blood incubated with compound
Experimental: Whole blood was incubated with Compound 1 or vehicle and then a calcium ionophore (Calcimycin, A23187), or 10% DMSO. LTB4 levels in plasma were measured using ELISA.
FIGS. 36-37 report the results of ex vivo target engagement assays with Compound 1 in human and mouse plasma. Whole blood from human or mouse was incubated with vehicle or Compound 1, following by a calcium ionophore stimulation. Plasma was generated and LTB4 levels were measured using ELISA. LTB4 is the product of LTA4H hydrolysis so this assay reports on LTA4H enzymatic activity.

[3] = Body weight of aged mice; assay type: in vivo, mouse
Experimental: as §1

[4] = test system: aged wild type (WT; C57BL/6) mice; test: qPCR of hippocampal gene expression; assay type: in vivo, mouse
Source text: Brains were collected following saline perfusion and separated by mid-sagittal slice with one-half dissected into hippocampus and cortex and then snap frozen on dry ice. RNA was isolated from brain tissue using the RNAeasy Qiagen Kit according to the manufacturer's instruction, briefly, tissue was homogenized using an Omni Bead Ruptor in RLT buffer, RNA was bound to RNA isolation column, washed and eluted. Contaminating DNA was removed by DNAse digestion and cDNA was generated using the Life Technologies SuperScript III Kit. A master mix for qPCR was made using the appropriate forward and reverse primers, and SYBR green reagent or TaqMan reagent. The reaction was run on a Life Technologies QuantStudio Real-Time PCR System and analyzed using the std ddCT protocol on the QuantStudio6 software.
as §1

[5] = test system: aged mice; test: LPS model of blood-brain-barrier (BBB) leakiness; assay type: in vivo, mouse
Experimental: FIGS. 63-66 report the results of an in vivo model of blood-brain-barrier (BBB) leakiness. Aged mice were treated for 4 weeks with vehicle or Compound 1 followed by an acute high dose of LPS was used to induce BBB breakdown. Sodium fluorescein was injected by tail vein and leakiness of sodium fluorescein into the brain was measured using a fluorescent plate reader. FIG. 63 reports that LPS induced BBB breakdown in young and aged mice. […] (n=69, 57)). FIG. 65 reports the GFAP intensity across a 60 micron (μm) long line drawn across the large descending vessels of the CA1 hippocampus after 4 weeks of dosing with vehicle or Compound 1 followed by a high dose LPS to induced BBB breakdown. (Mixed effects analysis with repeated measures. (n=69, 57)). FIG. 66 reports the results of in vivo target engagement assays with Compound 1 in mouse plasma. Whole blood from mice dosed with Compound 1 for 4 weeks followed by high dose LPS was incubated with a calcium ionophore to stimulate LTB4 release. Plasma was generated and LTB4 levels were measured using ELISA. LTB4 is the product of LTA4H hydrolysis so this assay reports on LTA4H enzymatic activity. […] (Kruskal-Wallis test with Dunn's multiple comparisons with post-hoc Mann-Whitney test. ****p<0.0001 (n=8, 9, 8, 9)).

[6] = molecular target: LTA4H hydrolase activity (Mus musculus (Mouse), UniProt P24527); test: Pharmacodynamic analysis of plasma LTB4 after a single dose; assay type: in vivo
LTA4H hydrolase activity, sequence (P24527 whole entry): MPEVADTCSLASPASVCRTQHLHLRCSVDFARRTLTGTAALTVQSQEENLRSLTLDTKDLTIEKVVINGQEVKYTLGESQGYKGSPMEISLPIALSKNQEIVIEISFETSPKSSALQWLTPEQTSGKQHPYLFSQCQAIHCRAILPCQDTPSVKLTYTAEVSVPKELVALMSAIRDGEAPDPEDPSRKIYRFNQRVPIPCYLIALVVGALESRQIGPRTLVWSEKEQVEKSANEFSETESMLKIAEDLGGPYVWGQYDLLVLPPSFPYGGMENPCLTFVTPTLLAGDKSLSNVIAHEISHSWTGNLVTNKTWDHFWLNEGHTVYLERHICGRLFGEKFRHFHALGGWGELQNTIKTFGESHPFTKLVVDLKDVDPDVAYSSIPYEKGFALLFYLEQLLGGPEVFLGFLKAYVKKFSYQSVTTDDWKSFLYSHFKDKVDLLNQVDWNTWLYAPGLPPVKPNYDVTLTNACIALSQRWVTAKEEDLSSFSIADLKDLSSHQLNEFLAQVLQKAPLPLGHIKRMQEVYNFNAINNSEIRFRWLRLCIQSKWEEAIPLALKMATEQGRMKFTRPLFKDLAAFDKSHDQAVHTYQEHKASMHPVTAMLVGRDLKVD
Experimental: Whole blood was collected by cardiac puncture using heparin as an anti-coagulant. 160 μL of whole blood was collected in duplicate for each mouse and incubated for 15 minutes in 37° C./5% CO2. During this time a 0.1 mM calcimycin stock was made by diluting 10 mM calcimycin (Sigma C7522) formulated in DMSO into PBS. Control solution was made by diluting the same volume of DMSO in PBS. Both solutions were sonicated for 10 minutes in a 37° C. water bath. 40 μL of 0.1 mM calcimycin (stimulated) or control solution (unstimulated) was added to each well of whole blood and incubated at 37° C./5% CO2 for 30 minutes. Whole blood was spun for 10 minutes at 1000×g to separate out plasma. LTB4 levels were detected by running an ELISA on the collected stimulated and unstimulated plasma diluted 1:10 (Enzo Life Sciences, ADI-901-068). The ELISA plates were read on a BMG LABTECH CLARIOstar plate reader at 405 nm.

[7] = test system: aged mice; test: CA1 synapse density by histology; assay type: in vivo, mouse; details: preliminary data, pre- and post-synaptic protein staining

O=C(O)C1CCN(Cc2ccc([C@H]3COc4ccccc4O3)cc2)CC1 [Example 1, 1-{4-[(2S)-2,3-dihydro-1,4-benzodioxin-2-yl]benzyl}piperidine-4-carboxylic acid]
AQP4 intensity across large descending vessels of CA1 hippocampus ([1]; 4 weeks of treatment): reduction in the AQP4 intensity | GFAP percent thresholded area, CA1 ([1]; 4 weeks of treatment): significant reduction GFAP percent thresholded area | total GFAP+ cell number, CA1 ([1]; 4 weeks of treatment): did not change | AQP4 intensity across large descending vessels of CA1 hippocampus ([1]; 10 days of dosing): trending reduction in AQP4 intensity | LTB4 plasma levels after calcium ionophore stimulation [2]: reduces LTB4 plasma levels to unstimulated levels | body weight ([3]; 4 weeks of dosing, first cohort): no change in body weight | body weight ([3]; 4 weeks of dosing, second cohort): no change in body weight | body weight ([3]; 4 weeks of dosing, third cohort): no change in body weight | body weight ([3]; 10 days of dosing, first cohort): no change in body weight | body weight ([3]; 10 days of dosing, second cohort): no change in body weight | body weight ([3]; 10 days of dosing, third cohort): no change in body weight | dcx hippocampal gene expression ([4]; 4 weeks of dosing): increased dcx hippocampal gene expression | h2d1 hippocampal gene expression ([4]; 10 days and 4 weeks of dosing): trends towards reduced h2d1 hippocampal gene expression | creb1 hippocampal gene expression ([4]; 10 days of dosing): increased creb1 hippocampal gene expression | egr1 hippocampal gene expression ([4]; 10 days of dosing): increased egr1 hippocampal gene expression | iba1 hippocampal gene expression ([4]; 10 days of dosing): trends towards reduced iba1 hippocampal gene expression | il1b hippocampal gene expression ([4]; 10 days of dosing): trends towards reduced il1b hippocampal gene expression | LTB4 levels in calcimycin stimulated plasma ([5]; 4 weeks of dosing followed by LPS): trending reduction | AQP4 intensity across large descending vessels of CA1 hippocampus ([5]; 4 weeks of dosing then high dose LPS): trending reduction in AQP4 intensity | LTB4 levels in calcimycin stimulated plasma ([5]; 4 weeks of dosing, without LPS): significant reduction in LTB4 levels | BBB leakiness (sodium fluorescein in brain) ([5]; aged mice, 4 weeks treatment then acute high dose LPS): trend towards reduced BBB leakiness | calcimycin stimulated plasma LTB4 levels ([6]; single 1 mg/kg oral dose, multiple timepoints, C57BL/6 mice): reduction in the pharmacodynamic readout of calcimycin stimulated plasma LTB4 levels | plasma LTB4 levels, dose response ([6]; single dose 0.3, 0.1 or 0.03 mg/kg, 6 hours post dosing): dose response in the pharmacodynamic readout of plasma LTB4 levels | synapse density in the CA1 region of the hippocampus [7]: trends towards increasing synapse density
